Measured values: patent publication US9815820B2, “Rho kinase inhibitors” (priority 2012, dated 2017)
“Also recorded” adds a separate entry of the source.

Assays:
CD4+CD25+ human Tregs = experiment: Treg suppression of IL-17 secretion in CD4+CD25- effector T cells; assay type: cell-based; settings: Tregs treated 3 hours; Treg:Teff 1:4 and 1:9
[1] = test system: TGF-β-induced STAT3, MLC and SMAD2/3 phosphorylation; experiment: TGF-β-induced phosphorylation of STAT3, MLC and SMAD2/3 in Tregs
STAT3 phosphorylation = STAT3 phosphorylation in T cells; assay type: cell-based, human
PBMCs = experiment: ex vivo anti-CD3/CD28 stimulation of cytokine production in PBMCs isolated from treated patients; parameters: species or system human; settings: 120 mg/day on days 1 and 8-14
CD4+ human T cells [2] = experiment: proliferation of T cells in response to TCR stimulation in vitro; assay type: cell-based; settings: listed as KD025
human CD4+ T cells = experiment: Foxp3 expression in CD4+ T cells after Th17 skewing activation; assay type: cell-based; settings: 5 days of Th17 skewing activation
CD4+ human T cells [3] = experiment: cytokine secretion in anti-CD3/CD28 stimulated CD4+ T cells in vitro; assay type: cell-based; settings: anti-CD3/CD28 stimulation
[4] = test system: CD4+ T cells from RA patients; experiment: cytokine secretion ex vivo in CD3/CD28 stimulated CD4+ T cells from RA patients; assay type: cell-based, human
[5] = CD4+ T cells from RA patients, ex vivo, listed as KD025

**Q.** CC(C)NC(=O)COc1cccc(-c2nc(Nc3ccc4[nH]ncc4c3)c3ccccc3n2)c1 [SLx-2119] was tested. Which “ability of Tregs to suppress IL-17 secretion in CD4+CD25- effector T cells” value (CD4+CD25+ human Tregs) did it give?
**A.** significantly increased

**Q.** And the “phosphorylation of SMAD2/3” value [1]?
**A.** remains intact

**Q.** And the “TGF-β-induced MLC phosphorylation” value ([1]; dose-dependent)?
**A.** down-regulates

**Q.** And the “TGF-β-induced STAT3 phosphorylation” value ([1]; dose-dependent)?
**A.** down-regulates

**Q.** And the STAT3 phosphorylation (STAT3 phosphorylation; Th17-skewing conditions 5 days, then treatment 3 hours)?
**A.** STAT3 phosphorylation was reduced

**Q.** And the “phosphorylation of STAT3, IRF4 and RORγt” value (STAT3 phosphorylation; anti-CD3/CD28, TGF-β and IL-1β, 48 hours (FIG. 9C))?
**A.** reduced phosphorylation of STAT3, as well as IFR4 and RORγT, was confirmed

**Q.** What about the “phosphorylation of STAT3” value (STAT3 phosphorylation; pre-treatment, then anti-CD3/CD28 stimulation) of the same compound?
**A.** reduced phosphorylation of STAT3

**Q.** What about the “IFN-γ in PBMCs” value (PBMCs) of the same compound?
**A.** No effect

**Q.** What about the “induction of IL-17 secretion in PBMCs” value (PBMCs) of the same compound?
**A.** significantly inhibited in PBMCs isolated from four of five patients

**Q.** What about the “induction of IL-21 secretion in PBMCs” value (PBMCs) of the same compound?
**A.** significantly inhibited in PBMCs from all five patients

**Q.** And the “proliferation in response to TCR stimulation” value (CD4+ human T cells [2])?
**A.** inhibits; also recorded: down-regulated their ability to proliferate

**Q.** What about the “percentage of Foxp3+ cells” value (human CD4+ T cells) of the same compound?
**A.** significantly increased

**Q.** And the IFN-γ secretion (CD4+ human T cells [3])?
**A.** less robust and significant only at high dose (10 μM)

**Q.** And the IL-2 secretion (CD4+ human T cells [3])?
**A.** observed only at the highest concentration (10 μM)

**Q.** And the IL-17 secretion (CD4+ human T cells [3]; listed as KD025)?
**A.** inhibits; also recorded: significantly inhibited

**Q.** What about the IL-21 secretion (CD4+ human T cells [3]; listed as KD025) of the same compound?
**A.** inhibits; also recorded: significantly inhibited

**Q.** And the “frequencies of IL-17 and IFN-γ-producing cells” value ([4]; 2 RA patients, intracellular staining)?
**A.** significantly reduced the frequencies

**Q.** What about the IFN-γ secretion [4, 5] of the same compound?
**A.** inhibits; also recorded: significantly down-regulated

**Q.** What about the IL-17 secretion [4, 5] of the same compound?
**A.** inhibits; also recorded: significantly down-regulated

**Q.** And the IL-21 secretion [4, 5]?
**A.** inhibits; also recorded: significantly down-regulated
